Consider twelve molecules from ChEMBL document CHEMBL5344481, “Design, synthesis and biological evaluation of rhein-piperazine-furanone hybrids as potential anticancer agents” (RSC Med Chem, 2024).

Data set [1] has as its system A549. The data set is described as follows: Anticancer activity against human A549 cells incubated for 48 hrs by MTT assay. Conditions: A549, 48 h. Format: functional, cell-based.
Data set [2] can be described thus: Cytotoxicity against human WI-38 cells incubated for 48 hrs by MTT assay. It is filed as toxicity, cell-based. (In general: Tetrazolium assays rely on reduction of a dye to a coloured formazan, in cell work by metabolically active cells.)
A short description of data set [3]: Selectivity index, ratio of IC50 for human WI-38 cells to IC50 for human A549 cells. It is filed as toxicity. Conditions: WI-38 cells versus A549 cells, read-out: Ratio IC50.
In data set [4] the test system is NCI-H460. The data set is described as follows: Anticancer activity against human NCI-H460 cells incubated for 48 hrs by MTT assay. Format: functional, cell-based. Conditions: NCI-H460, 48 h.
Data set [5] relates to PC-9. The data set is described as follows: Anticancer activity against human PC-9 cells incubated for 48 hrs by MTT assay. It is filed as functional, cell-based. Conditions: PC-9, 48 h.
Data set [6] deals with Calu-1. Put plainly: Anticancer activity against human Calu-1 cells incubated for 48 hrs by MTT assay. It is filed as functional, cell-based. To be noted: Calu-1, 48 h.
In data set [7] the test system is SK-BR-3. The data set is described as follows: Anticancer activity against human SK-BR-3 cells incubated for 48 hrs by MTT assay. Conditions: SK-BR-3, 48 h. Format: functional, cell-based.
Data set [8] concerns SK-OV-3. The data set is described as follows: Anticancer activity against human SK-OV-3 cells incubated for 48 hrs by MTT assay. It is filed as functional, cell-based. To be noted: SK-OV-3, 48 h.
In data set [9] the test system is 786-0. Put plainly: Anticancer activity against human 786-0 cells incubated for 48 hrs by MTT assay. Format: functional, cell-based. To be noted: 786-0, 48 h.
In data set [10] the test system is Huh-7. The data set is described as follows: Anticancer activity against human Huh-7 cells incubated for 48 hrs by MTT assay. It is filed as functional, cell-based. To be noted: Huh-7, 48 h.
Data set [11] concerns HCT-116. The data set is described as follows: Anticancer activity against human HCT-116 cells incubated for 48 hrs by MTT assay. It is filed as functional, cell-based. To be noted: HCT-116, 48 h.
For data set [12], the system named is HeLa. Put plainly: Anticancer activity against human HeLa cells incubated for 48 hrs by MTT assay. It is filed as functional, cell-based.
A short description of data set [13]: Cytotoxicity against human MCF-10A cells incubated for 48 hrs by MTT assay. Format: toxicity, cell-based.
A short description of data set [14]: Cytotoxicity against human KGN cells incubated for 48 hrs by MTT assay. Format: toxicity, cell-based.
A short description of data set [15]: Cytotoxicity against human HEK-293T cells incubated for 48 hrs by MTT assay. Format: toxicity, cell-based.
Data set [16] is described as follows: Selectivity index, ratio of IC50 for human WI-38 cells to IC50 for human H460 cells. It is filed as toxicity. Conditions: WI-38 cells versus H460 cells, read-out: Ratio IC50.
Data set [17] in a line: Selectivity index, ratio of IC50 for human WI-38 cells to IC50 for human Calu-1 cells. Format: toxicity. To be noted: WI-38 cells versus Calu-1 cells, read-out: Ratio IC50.
Data set [18] in a line: Selectivity index, ratio of IC50 for human MCF-10A cells to IC50 for human SK-BR-3 cells. It is filed as toxicity. To be noted: MCF-10A cells versus SK-BR-3 cells, read-out: Ratio IC50.
The subject of data set [19] is NCI-H460. Put plainly: Induction of apoptosis in human NCI-H460 cells assessed as viable cells at 0.8 uM incubated for 48 hrs by Annexin V-FITC/PI staining based flow cytometry (reference value: 92.82 to 93.46 %). To be noted: read-out: Activity. It is filed as functional. Background: A flow cytometer gives signals particle by particle.
Data set [20] relates to NCI-H460. The data set is described as follows: Induction of apoptosis in human NCI-H460 cells assessed as […] cells at 0.8 uM incubated for 48 hrs by Annexin V-FITC/PI staining based flow cytometry (reference value: 4.31 to 4.76 %). Format: functional.
For data set [21], the system named is NCI-H460. Put plainly: Induction of apoptosis in human NCI-H460 cells assessed as […] cells at 0.8 uM incubated for 48 hrs by Annexin V-FITC/PI staining based flow cytometry (reference value: 2.17 to 2.38 %). It is filed as functional.
In data set [22] the test system is NCI-H460. The data set is described as follows: Induction of apoptosis in human NCI-H460 cells assessed as necrotic cells at 0.8 uM incubated for 48 hrs by Annexin V-FITC/PI staining based flow cytometry (reference value: 0.02 to 0.06 %). Format: functional.
Data set [23] deals with NCI-H460. Put plainly: Induction of apoptosis in human NCI-H460 cells assessed as viable cells at 8 uM incubated for 48 hrs by Annexin V-FITC/PI staining based flow cytometry (reference value: 92.82 to 93.46 %). Format: functional. Conditions: read-out: Activity.
Data set [24] relates to NCI-H460. Put plainly: Induction of apoptosis in human NCI-H460 cells assessed as […] cells at 8 uM incubated for 48 hrs by Annexin V-FITC/PI staining based flow cytometry (reference value: 4.31 to 4.76 %). It is filed as functional.
The subject of data set [25] is NCI-H460. Put plainly: Induction of apoptosis in human NCI-H460 cells assessed as […] cells at 8 uM incubated for 48 hrs by Annexin V-FITC/PI staining based flow cytometry (reference value: 2.17 to 2.38 %). Format: functional.
Data set [26] relates to NCI-H460. Put plainly: Induction of apoptosis in human NCI-H460 cells assessed as necrotic cells at 8 uM incubated for 48 hrs by Annexin V-FITC/PI staining based flow cytometry (reference value: 0.02 to 0.06 %). It is filed as functional.
The test system of data set [27] is NCI-H460. The data set is described as follows: Induction of apoptosis in human NCI-H460 cells assessed as viable cells at 80 uM incubated for 48 hrs by Annexin V-FITC/PI staining based flow cytometry (reference value: 92.82 to 93.46 %). Format: functional. Conditions: read-out: Activity.
The test system of data set [28] is NCI-H460. Put plainly: Induction of apoptosis in human NCI-H460 cells assessed as […] cells at 80 uM incubated for 48 hrs by Annexin V-FITC/PI staining based flow cytometry (reference value: 4.31 to 4.76 %). Format: functional.
Data set [29] has as its system NCI-H460. Put plainly: Induction of apoptosis in human NCI-H460 cells assessed as […] cells at 80 uM incubated for 48 hrs by Annexin V-FITC/PI staining based flow cytometry (reference value: 2.17 to 2.38 %). Format: functional.
The subject of data set [30] is NCI-H460. The data set is described as follows: Induction of apoptosis in human NCI-H460 cells assessed as necrotic cells at 80 uM incubated for 48 hrs by Annexin V-FITC/PI staining based flow cytometry (reference value: 0.02 to 0.06 %). Format: functional.
In data set [31] the test system is NCI-H460. The data set is described as follows: Induction of apoptosis in human NCI-H460 cells assessed as total apoptotic cells at 0.8 uM incubated for 48 hrs by Annexin V-FITC/PI staining based flow cytometry (reference value: 6.85 %). It is filed as functional.
The test system of data set [32] is NCI-H460. Put plainly: Induction of apoptosis in human NCI-H460 cells assessed as total apoptotic cells at 8 uM incubated for 48 hrs by Annexin V-FITC/PI staining based flow cytometry (reference value: 6.85 %). Format: functional.
Data set [33] relates to NCI-H460. Put plainly: Induction of apoptosis in human NCI-H460 cells assessed as total apoptotic cells at 80 uM incubated for 48 hrs by Annexin V-FITC/PI staining based flow cytometry (reference value: 6.85 %). It is filed as functional.

Each structure is given as a SMILES string.

In the case of `COC1OC(=O)C(Cl)=C1N1CCN(C(=O)c2cc(OC(C)=O)c3c(c2)C(=O)c2cccc(OC(C)=O)c2C3=O)CC1` (centres undefined), the IC50 in data set [1] stood at 5.74 µM; in [4], 4.35 µM; in data set [5] it was 5.78 µM; in [6] it was 15.4 µM; in data set [7], 19.1 µM; in data set [8], 60.5 µM. Also, the IC50 in [9] amounted to 20.7 µM; in data set [10], 21 µM; in data set [11], 13.8 µM; in data set [12], 30.5 µM. The IC50 at 48 h is 69.3 µM in data set [2], 17 µM in data set [13], 76.4 µM in data set [14] and 9.15 µM in data set [15]. In addition, the selectivity ratio in data set [3] was 12; in data set [16], 16; in [17], 5; in data set [18], 1. Besides, in data set [19], the viability at 0.8 µM came out at 89.5%. Further, the Activity is recorded as 5.09% in data set [20]; 3.49% in [21]; 0.12% in data set [22]; 18.14% in data set [24]; 18.88% in data set [25]; 0.06% in data set [26]. The Activity in data set [28] was 25.81%; in [29], 29.91%; in [30], 0.07%; in data set [31], 9.38%; in data set [32], 37.72%; in [33], 56.57%. Also, in [23], the viability at 8 µM amounted to 61.1%. The viability at 80 µM in data set [27] amounted to 42.6%.
The molecule `CC(=O)Oc1cccc2c1C(=O)c1c(OC(C)=O)cc(C(=O)N3CCN(C4=C(Br)C(=O)O[C@@H]4O[C@@H]4C[C@H](C)CC[C@H]4C(C)C)CC3)cc1C2=O` gave an IC50 in data set [1] of 46.9 µM. Moreover, the IC50 at 48 h in data set [2] was 24.9 µM. Besides, the selectivity ratio in data set [3] was determined as 1.
The molecule `CC(=O)Oc1cccc2c1C(=O)c1c(OC(C)=O)cc(C(=O)N3CCN(C4=C(Br)C(=O)OC4O[C@@H]4CC5CCC4(C)C5(C)C)CC3)cc1C2=O` (some centres undefined) came in with an IC50 in [1] of 86.7 µM. This molecule also showed an IC50 at 48 h in data set [2] of 43.1 µM. Besides, in [3], the selectivity ratio worked out at 1.
The corresponding values for `CC(C)[C@@H]1CC[C@@H](C)C[C@H]1O[C@H]1OC(=O)C(Cl)=C1N1CCN(C(=O)c2cc(O)c3c(c2)C(=O)c2cccc(O)c2C3=O)CC1` are 46.5 µM, 296 µM and 6.
The corresponding values for `CC(C)[C@@H]1CC[C@@H](C)C[C@H]1O[C@H]1OC(=O)C(Br)=C1N1CCN(C(=O)c2cc(O)c3c(c2)C(=O)c2cccc(O)c2C3=O)CC1` are 117 µM, 167 µM and 1.
The corresponding values for `CC(=O)Oc1cccc2c1C(=O)c1c(OC(C)=O)cc(C(=O)N3CCN(C4=C(Cl)C(=O)OC4O[C@@H]4CC5CCC4(C)C5(C)C)CC3)cc1C2=O` (some centres undefined) are 69.1 µM, 34.7 µM and 1.
The molecule `CC1(C)C2CCC1(C)[C@H](OC1OC(=O)C(Cl)=C1N1CCN(C(=O)c3cc(O)c4c(c3)C(=O)c3cccc(O)c3C4=O)CC1)C2` (some centres undefined) yielded an IC50 in data set [1] of 106 µM. The molecule further yielded an IC50 at 48 h in data set [2] of 173 µM. The selectivity ratio in data set [3] was determined as 2.
The corresponding values for `COC1OC(=O)C(Br)=C1N1CCN(C(=O)c2cc(OC(C)=O)c3c(c2)C(=O)c2cccc(OC(C)=O)c2C3=O)CC1` (centres undefined) are 5.49 µM, 39.1 µM and 7.
The corresponding values for `CC(=O)Oc1cccc2c1C(=O)c1c(OC(C)=O)cc(C(=O)N3CCN(C4=C(Cl)C(=O)O[C@@H]4O[C@@H]4C[C@H](C)CC[C@H]4C(C)C)CC3)cc1C2=O` are 115 µM, 66.3 µM and 1.
The corresponding values for `CC1(C)C2CCC1(C)[C@H](OC1OC(=O)C(Br)=C1N1CCN(C(=O)c3cc(O)c4c(c3)C(=O)c3cccc(O)c3C4=O)CC1)C2` (some centres undefined) are 112 µM, 152 µM and 1.
In turn, `Nc1ccn([C@@H]2O[C@H](CO)[C@@H](O)[C@@H]2O)c(=O)n1` [CYTARABINE] displayed an IC50 at 48 h in [2] of 493 µM. In addition, the selectivity ratio in [3] is 2.
In [1], `O=C(O)c1cc(O)c2c(c1)C(=O)c1cccc(O)c1C2=O` [RHEIN] displayed an IC50 of 266 µM. Also, the selectivity ratio in data set [3] was found to be 1.

What is called IC50 is the concentration that gives 50% inhibition. The low end stands for higher potency, the high end for lower potency.
